Measurements taken from PMC12892976, “Alkylation-based optimization of antifungal FPPS inhibitors yields a potent, broad-spectrum lipophilic zoledronate derivative” (mBio, 2025).
≈ marks a conversion by molar mass, not a printed value. Like-named read-outs stand apart in the source and are kept apart here.

Legend:
Candida albicans = test: checkerboard drug interaction (FICI, MICc);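 as to all read-outs here: antifungal plus FPPS inhibitor combinations on Candida albicans tested by a simplified diagonal checkerboard screen, with FICI calculated under the Loewe additivity model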; format: cell-based; details: C. albicans; for INH FD (MIC-MICc fold decrease): fold decrease of inhibitor MIC
Procedure: (§1) Drug interactions between antifungals and FPPS inhibitors were investigated using a simplified checkerboard diagonal screening method ([45]). […] FICIs were determined according to the Loewe additivity model ([17]).

Aspergillus flavus [1] = test: checkerboard drug interaction (FICI, MICc);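 also: simplified diagonal checkerboard screen pairing azole antifungals with FPPS inhibitors, FICI calculated under the Loewe additivity model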; format: cell-based; set-up: INH MICc (KET:INH) / INH MICc (FLC:INH): unit not given beside the values; details: A. flavus
Aspergillus fumigatus [2] = test: checkerboard drug interaction (FICI, MICc); format: cell-based;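 also: simplified diagonal checkerboard screen pairing antifungals with FPPS inhibitors against Aspergillus fumigatus, with FICI calculated under the Loewe additivity model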
Procedure: as §1

Trichophyton rubrum [3] = test: checkerboard drug interaction (FICI, MICc);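 also: simplified diagonal checkerboard screen pairing azole antifungals with FPPS inhibitors, FICI calculated under the Loewe additivity model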; format: cell-based; details: T. rubrum
Procedure: as §1

HEK-293T cells = test: MTT reduction cytotoxicity assay; format: cell-based; details: Homo sapiens, HEK-293T, 72 h, MTT, 72 h
eight fungal species [4] = test: MIC/MFC summary across the eight fungal species of Table 1; format: cell-based
Procedure: The antifungal activity of these compounds was evaluated according to CLSI guidelines ([16]).

eight fungal species [5] = test: checkerboard interaction with azoles, summary across the eight species; format: cell-based
Source text: Synergy between lipophilic FPPS inhibitors and azole antifungals was investigated by determining the fractional inhibitory concentration index (FICI) (Fig. 2; Table S1 Fig. S1) ([17]). […]. Derivatives PLA9 and 11, and PDA9, 11, and 12 antagonized azoles in C. albicans, C. neoformans, and C. deuterogattii, yet were largely synergistic in C. glabrata and S. cerevisiae. […].

[6] = system: Cryptococcus deuterogattii; test: MIC/MFC broth microdilution (CLSI); details: Cryptococcus deuterogattii;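 also: broth microdilution per CLSI M27-Ed4. MFC is the lowest concentration yielding no colonies when MIC broths are subcultured onto SDA plates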
Procedure: (§2) Antifungal susceptibility was determined by broth microdilution according to the CLSI guidelines described in M27-Ed4 ([16]). […] MFC was determined by back-plating drug-treated cultures from MIC broths onto SDA plates. The MFC was defined as the lowest concentration from which no colonies could be cultured.

Cryptococcus neoformans = test: MIC/MFC broth microdilution (CLSI); details: Cryptococcus neoformans;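 also: susceptibility testing followed the CLSI M27-Ed4 broth microdilution document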
Procedure: as §2

Candida glabrata = test: MIC/MFC broth microdilution (CLSI); details: Nakaseomyces glabratus, CBS138;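 also: broth microdilution following CLSI M27-Ed4, MFC taken as the lowest drug level yielding no growth once MIC wells were subcultured on SDA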
Procedure: as §2

Aspergillus flavus [7] = test: MIC/MFC broth microdilution (CLSI); details: ATCC204304
Procedure: as §2

Aspergillus fumigatus [8] = test: MIC/MFC broth microdilution (CLSI); details: ATCC204305
Procedure: as §2

Trichophyton rubrum [9] = test: MIC/MFC broth microdilution (CLSI); details: Trichophyton rubrum
Procedure: as §2

[10] = Fractional Inhibitory Concentration Index, fluconazole + inhibitor
[11] = Fractional Inhibitory Concentration Index, itraconazole + inhibitor
[12] = Fractional Inhibitory Concentration Index, ketoconazole + inhibitor
[13] = MIC of the inhibitor in combination with fluconazole
[14] = MIC of the inhibitor in combination with itraconazole
[15] = MIC of the inhibitor in combination with ketoconazole
[16] = MIC-MICc fold decrease of fluconazole, negative = increase
[17] = MIC-MICc fold decrease of itraconazole, negative = increase
[18] = MIC-MICc fold decrease of ketoconazole, negative = increase
[19] = MIC-MICc fold decrease of the inhibitor, with fluconazole
[20] = MIC-MICc fold decrease of the inhibitor, with itraconazole
[21] = MIC-MICc fold decrease of the inhibitor, with ketoconazole

Compound: CCCCCCCCCCCN1CCC[C@H]1C(=O)N[C@@H](CC(=O)OC)C(=O)OC [dmPLA11]
- INH FD (MIC-MICc fold decrease) (Candida albicans; ITR:INH combination): 4
- FICI (Candida albicans; KET:INH combination): 1.25
- INH MICc (Candida albicans; KET:INH combination, MIC of the inhibitor in combination with KET): 8
- KET FD (MIC-MICc fold decrease) (Candida albicans; KET:INH combination, fold decrease of KET MIC): 1
- INH FD (MIC-MICc fold decrease) (Candida albicans; KET:INH combination): 4
- FICI (FLC:INH) (Aspergillus flavus [1]; [10]): 2
- FICI (ITR:INH) (Aspergillus flavus [1]; [11]): 1.25
- FICI (KET:INH) (Aspergillus flavus [1]; [12]): 0.75
- INH MICc (FLC:INH) (Aspergillus flavus [1]; [13]): 256
- INH MICc (ITR:INH) (Aspergillus flavus [1]; [14]): 64
- INH MICc (KET:INH) (Aspergillus flavus [1]; [15]): 64
- FLC FD (FLC:INH) (Aspergillus flavus [1]; [16]): 1
- ITR FD (ITR:INH) (Aspergillus flavus [1]; [17]): 1
- KET FD (KET:INH) (Aspergillus flavus [1]; [18]): 2
- INH FD (FLC:INH) (Aspergillus flavus [1]; [19]): 1
- INH FD (ITR:INH) (Aspergillus flavus [1]; [20]): 4
- INH FD (KET:INH) (Aspergillus flavus [1]; [21]): 4
- FICI (FLC:INH) (Aspergillus fumigatus [2]; [10]): 1.25
- FICI (ITR:INH) (Aspergillus fumigatus [2]; [11]): 0.53
- FICI (KET:INH) (Aspergillus fumigatus [2]; [12]): 1.5
- INH MICc (FLC:INH) (Aspergillus fumigatus [2]; [13]): 64
- INH MICc (ITR:INH) (Aspergillus fumigatus [2]; [14]): 2
- INH MICc (KET:INH) (Aspergillus fumigatus [2]; [15]): 64
- FLC FD (FLC:INH) (Aspergillus fumigatus [2]; [16]): 4
- ITR FD (ITR:INH) (Aspergillus fumigatus [2]; [17]): 2
- KET FD (KET:INH) (Aspergillus fumigatus [2]; [18]): 2
- INH FD (FLC:INH) (Aspergillus fumigatus [2]; [19]): 1
- INH FD (ITR:INH) (Aspergillus fumigatus [2]; [20]): 32
- INH FD (KET:INH) (Aspergillus fumigatus [2]; [21]): 1
- FICI (FLC:INH) (Trichophyton rubrum [3]; [10]): 2.25
- FICI (ITR:INH) (Trichophyton rubrum [3]; [11]): 2.13
- FICI (KET:INH) (Trichophyton rubrum [3]; [12]): 2.25
- INH MICc (FLC:INH) (Trichophyton rubrum [3]; [13]): 32
- INH MICc (ITR:INH) (Trichophyton rubrum [3]; [14]): 32
- INH MICc (KET:INH) (Trichophyton rubrum [3]; [15]): 32
- FLC FD (FLC:INH) (Trichophyton rubrum [3]; [16]): 4
- ITR FD (ITR:INH) (Trichophyton rubrum [3]; [17]): 8
- KET FD (KET:INH) (Trichophyton rubrum [3]; [18]): 4
- INH FD (FLC:INH) (Trichophyton rubrum [3]; [19]): -2
- INH FD (ITR:INH) (Trichophyton rubrum [3]; [20]): -2
- INH FD (KET:INH) (Trichophyton rubrum [3]; [21]): -2
- IC50 (HEK-293T cells; HEK-293T cells, read-out: IC50): 9.09 µg/mL (≈ 22 µM)
- IC50 (HEK-293T cells; read-out: HEK IC50): 9.09 µg/mL (≈ 22 µM)
- MFC (eight fungal species [4]; across eight species, read-out: Geometric mean MFC): 83 µg/mL (≈ 201 µM)
- MIC (eight fungal species [4]; geometric mean across eight species, read-out: GM fungal MIC): 29.3 µg/mL (≈ 71 µM)
- MIC (eight fungal species [4]; read-out: Geometric mean MIC): 29.3 µg/mL (≈ 71 µM)
- antagonism with azole drugs (eight fungal species [5]; any of the azole drugs in any species tested): no antagonism
- GM fungal MICc (eight fungal species [5]; geometric mean MIC in combination with azoles): 18
- MFC [6]: 128 µg/mL (≈ 310 µM)
- MIC [6]: 8 µg/mL (≈ 19.4 µM)
- MFC (Cryptococcus neoformans): 64 µg/mL (≈ 155 µM)
- MIC (Cryptococcus neoformans): 16 µg/mL (≈ 38.8 µM)
- MFC (Candida glabrata): 64 µg/mL (≈ 155 µM)
- MIC (Candida glabrata): 32 µg/mL (≈ 77.6 µM)
- MFC (Aspergillus flavus [7]): > 128 µg/mL
- MIC (Aspergillus flavus [7]): > 128 µg/mL
- MFC (Aspergillus fumigatus [8]): > 128 µg/mL
- MIC (Aspergillus fumigatus [8]): 128 µg/mL (≈ 310 µM)
- MFC (Trichophyton rubrum [9]): > 128 µg/mL
- MIC (Trichophyton rubrum [9]): 16 µg/mL (≈ 38.8 µM)
